Assay results: patent publication US12043617B2, “4-(N-methyl) aminopiperidine myricetin derivative containing dithiocarbamate, preparation method and application” (Guizhou University, priority 2019, dated 2024)

Tested on: SMMC-7721 cells
Experiment: MTT colorimetry, inhibition of hepatocellular carcinoma SMMC-7721 cell activity
Type: cell-based
Details: 48 hours
Protocol: Test for Inhibition of Cancer Cell Activity by Compound of Embodiment 19 (Taking Hepatocellular Carcinoma SMMC-7721 Cells as an embodiment):
SMMC-7721 cells are cultured in DMEM high sugar medium containing 10% fetal bovine serum in a saturated humidity incubator at 37° C. and 5% CO2. The culture medium is changed every two days and passaged every 3-4 days. The drug is prepared as 1 mmol/L and 10 mmol/L storage solution using DMSO as solvent, when used, the concentration is diluted into 1 μmol/L and 10 μmol/L with culture medium, using DMSO as negative control group and gemcitabine as positive control group to act on cells in logarithmic growth phase.
Cells in logarithmic growth phase are digested with 0.025% pancreatin, and then digested with DMEM high sugar medium containing 10% fetal bovine serum. After centrifugation, the cells are suspended in DMEM high sugar medium containing 10% fetal bovine serum. Take a 96-well plate and add 200 μL of sterile water seal to each hole around the plate to ensure saturated humidity in the experiment. In the middle six rows, 100 μL of cell suspension are added respectively, and the cell concentration is about 3.5×10^4 cells/mL. The last row is blank control group, and the same volume of complete culture medium is added. In 37° C., 5% CO2 saturated humidity incubator culture for 24 hours, cells completely adhere to the wall, remove the culture medium, add complete culture medium containing different drugs, 200 μL per hole. The blank control group is added with 200 μL of complete culture medium, and the culture is continued. After 24 hours, the drug effect is observed and photographed under an inverted microscope. After 48 hours, the drug effect is also observed and photographed under an inverted microscope. Then the supernatant is removed. 100 μL of 0.5 mg/mL MTT solution is added to each well. After 4 hours of continuous culture, purple crystal formazan is generated. 100 μL of 10% SDS is added to each well. After 12 hours of culture in an incubator at 37° C., the OD value is measured with an enzyme reader at A571 wavelength. Repeat 6 wells for each sample concentration, and calculate the inhibition rate by taking the average value.

Row | Structure (SMILES) | Inhibition Rate (%) (1 μmol/L) | Inhibition Rate (%) (10 μmol/L) | inhibition at 1 µM (Homo sapiens, 1 μmol/L, read-out: Inhibition Rate (%)) [%] | inhibition at 10 µM (Homo sapiens, 10 μmol/L, read-out: Inhibition Rate (%)) [%]
1 | COc1cc(OC)c2c(=O)c(OCCCCN(C)C3CCN(C(=S)SCc4ccccc4F)CC3)c(-c3cc(OC)c(OC)c(OC)c3)oc2c1 [Compound A13, 2-fluorobenzyl-4-((4-((5,7-dimethoxy-4-oxo-2-(3,4,5-trimethoxyphenyl)-4H-benzopyran-3-yl)oxy)butyl) (methyl)amino) piperidine-1-dithiocarboxylic acid] | 46.96 ± 4.65 | 99.76 ± 1.06 |  | 
2 | COc1cc(OC)c2c(=O)c(OCCCN(C)C3CCN(C(=S)SCc4cccnc4)CC3)c(-c3cc(OC)c(OC)c(OC)c3)oc2c1 [Compound A8, pyridine-3-ylmethyl 4-((3-((5,7-dimethoxy-4-oxo-2-(3,4,5-trimethoxyphenyl)-4H-chromene-3-yl)oxy)propyl) (methyl)amino) piperidine-1-dithiocarboxylic acid] | 15.48 ± 2.74 | 99.85 ± 1.64 |  | 
3 | COc1cc(OC)c2c(=O)c(OCCCN(C)C3CCN(C(=S)SCc4cccc(C)c4)CC3)c(-c3cc(OC)c(OC)c(OC)c3)oc2c1 [Compound A5, 3-methylbenzyl 4-((3-((5,7-dimethoxy-4-oxo-2-(3,4,5-trimethoxyphenyl)-4H-chromene-3-yl)oxy)propyl) (methyl)amino) piperidine-1-dithiocarboxylic acid] | 12.32 ± 2.39 | 97.52 ± 1.12 |  | 
4 | COc1cc(OC)c2c(=O)c(OCCCCN(C)C3CCN(C(=S)SCc4ccc([N+](=O)[O-])cc4)CC3)c(-c3cc(OC)c(OC)c(OC)c3)oc2c1 [Compound A16, 4-nitrobenzyl-4-((4-((5,7-dimethoxy-4-oxo-2-(3,4,5-trimethoxyphenyl)-4H-benzopyran-3-yl)oxy)butyl) (methyl)amino) piperidine-1-dithiocarboxylic acid] | 26.84 ± 4.36 | 99.85 ± 0.71 |  | 
5 | COc1cc(OC)c2c(=O)c(OCCCCN(C)C3CCN(C(=S)SCc4ccc(Cl)cc4)CC3)c(-c3cc(OC)c(OC)c(OC)c3)oc2c1 [Compound A10, 4-chlorobenzyl-4-((4-((5,7-dimethoxy-4-oxo-2-(3,4,5-trimethoxyphenyl)-4H-benzopyran-3-yl)oxy)butyl) (methyl)amino) piperidine-1-dithiocarboxylic acid] | 92.83 ± 3.84 | 97.85 ± 3.35 |  | 
6 | COc1cc(OC)c2c(=O)c(OCCCCN(C)C3CCN(C(=S)SCc4cccc(C)c4)CC3)c(-c3cc(OC)c(OC)c(OC)c3)oc2c1 [Compound A14, 3-methylbenzyl-4-((4-((5,7-dimethoxy-4-oxo-2-(3,4,5-trimethoxyphenyl)-4H-benzopyran-3-yl)oxy)butyl) (methyl)amino) piperidine-1-dithiocarboxylic acid] | 96.65 ± 2.61 | 100 ± 0.42 |  | 
7 | COc1cc(OC)c2c(=O)c(OCCCN(C)C3CCN(C(=S)SCc4ccccc4Cl)CC3)c(-c3cc(OC)c(OC)c(OC)c3)oc2c1 [Compound A2, 2-chlorobenzyl-4-((3-((5,7-dimethoxy-4-oxo-2-(3,4,5-trimethoxyphenyl)-4H-chromene-3-yl)oxy)propyl)(methyl)amino)piperidine-1-dithiocarboxylic acid] | 25.44 ± 3.25 | 96.13 ± 3.42 |  | 
8 | COc1cc(OC)c2c(=O)c(OCCCCN(C)C3CCN(C(=S)SCc4ccccc4C)CC3)c(-c3cc(OC)c(OC)c(OC)c3)oc2c1 [Compound A15, 2-methylbenzyl-4-((4-((5,7-dimethoxy-4-oxo-2-(3,4,5-trimethoxyphenyl)-4H-benzopyran-3-yl)oxy)butyl) (methyl)amino) piperidine-1-dithiocarboxylic acid] | 16.38 ± 3.82 | 99.52 ± 1.12 |  | 
9 | COc1cc(OC)c2c(=O)c(OCCCN(C)C3CCN(C(=S)SCc4ccc(Cl)nc4)CC3)c(-c3cc(OC)c(OC)c(OC)c3)oc2c1 [Compound A9, (6-chloropyridine-3-yl) methyl 4-((3-((5,7-dimethoxy-4-oxo-2-(3,4,5-trimethoxyphenyl)-4H-benzopyran-3-yl)oxygen)propyl) (methyl)amino) piperidine-1-dithiocarboxylic acid] | 18.83 ± 3.15 | 99.76 ± 1.06 |  | 
10 | COc1cc(OC)c2c(=O)c(OCCCN(C)C3CCN(C(=S)SCc4ccccc4F)CC3)c(-c3cc(OC)c(OC)c(OC)c3)oc2c1 [Compound A4, 2-fluorobenzyl 4-((3-((5,7-dimethoxy-4-oxo-2-(3,4,5-trimethoxyphenyl)-4H-chromene-3-yl)oxy)propyl)(methyl)amino) piperidine-1-dithiocarboxylic acid] | 20.66 ± 1.21 | 99.85 ± 1.64 |  | 
11 | COc1cc(OC)c2c(=O)c(OCCCCN(C)C3CCN(C(=S)SCc4ccc(Cl)cc4Cl)CC3)c(-c3cc(OC)c(OC)c(OC)c3)oc2c1 [Compound A12, 2,4-dichlorobenzyl-4-((4-((5,7-dimethoxy-4-oxo-2-(3,4,5-trimethoxyphenyl)-4H-benzopyran-3-yl)oxy)butyl) (methyl)amino) piperidine-1-dithiocarboxylic acid] | 98.09 ± 2.68 | 99.28 ± 1.04 |  | 
12 | COc1cc(OC)c2c(=O)c(OCCCN(C)C3CCN(C(=S)SCc4ccccc4C)CC3)c(-c3cc(OC)c(OC)c(OC)c3)oc2c1 [Compound A6, 2-methylbenzyl 4-((3-((5,7-dimethoxy-4-oxo-2-(3,4,5-trimethoxyphenyl)-4H-chromene-3-yl)oxy)propyl) (methyl)amino) piperidine-1-dithiocarboxylic acid] | 34.32 ± 2.69 | 98.12 ± 2.76 |  | 
13 | COc1cc(OC)c2c(=O)c(OCCCN(C)C3CCN(C(=S)SCc4ccc(Cl)cc4Cl)CC3)c(-c3cc(OC)c(OC)c(OC)c3)oc2c1 [Compound A3, 2,4-dichlorobenzyl 4-((3-((5,7-dimethoxy-4-oxo-2-(3,4,5-trimethoxyphenyl)-4H-chromene-3-yl)oxy)propyl) (methyl)amino) piperidine-1-dithiocarboxylic acid] | 18.16 ± 2.14 | 97.35 ± 1.78 |  | 
14 | COc1cc(OC)c2c(=O)c(OCCCCN(C)C3CCN(C(=S)SCc4cccnc4)CC3)c(-c3cc(OC)c(OC)c(OC)c3)oc2c1 [Compound A17, pyridine-3-ylmethyl-4-((4-((5,7-dimethoxy-4-oxo-2-(3,4,5-trimethoxyphenyl)-4H-benzopyran-3-yl)oxy)butyl) (methyl)amino) piperidine-1-dithiocarboxylic acid] | 68.42 ± 2.35 | 100 ± 1.31 |  | 
15 | Nc1ccn([C@@H]2O[C@H](CO)[C@@H](O)C2(F)F)c(=O)n1 [Gencitabine, gemcitabine, reference compound] |  |  | 55.7 ± 2.26 | 63.5 ± 2.18
16 | COc1cc(OC)c2c(=O)c(OCCCN(C)C3CCN(C(=S)SCc4ccc(Cl)cc4)CC3)c(-c3cc(OC)c(OC)c(OC)c3)oc2c1 [Compound A1, 4-chlorobenzyl 4-((3-((5,7-dimethoxy-4-oxo-2-(3,4,5-trimethoxyphenyl)-4H-chromene-3-yl)oxy)propyl)(methyl)amino)piperidine-1-dithiocarboxylic acid] | 21.82 ± 2.34 | 95.51 ± 4.16 |  | 
17 | COc1cc(OC)c2c(=O)c(OCCCN(C)C3CCN(C(=S)SCc4ccc([N+](=O)[O-])cc4)CC3)c(-c3cc(OC)c(OC)c(OC)c3)oc2c1 [Compound A7, 4-nitrobenzyl 4-((3-((5,7-dimethoxy-4-oxo-2-(3,4,5-trimethoxyphenyl)-4H-chromene-3-yl)oxy)propyl) (methyl)amino) piperidine-1-dithiocarboxylic acid] | 27.70 ± 1.09 | 99.35 ± 3.48 |  | 
18 | COc1cc(OC)c2c(=O)c(OCCCCN(C)C3CCN(C(=S)SCc4ccccc4Cl)CC3)c(-c3cc(OC)c(OC)c(OC)c3)oc2c1 [Compound A11, 2-chlorobenzyl-4-((4-((5,7-dimethoxy-4-oxo-2-(3,4,5-trimethoxyphenyl)-4H-benzopyran-3-yl)oxy)butyl) (methyl)amino) piperidine-1-dithiocarboxylic acid] | 91.00 ± 2.86 | 99.85 ± 1.64 |  | 
19 | COc1cc(OC)c2c(=O)c(OCCCCN(C)C3CCN(C(=S)SCc4ccc(Cl)nc4)CC3)c(-c3cc(OC)c(OC)c(OC)c3)oc2c1 [Compound A18, (6-chloropyridine-3-yl) methyl-4-((4-((5,7-dimethoxy-4-oxo-2-(3,4,5-trimethoxyphenyl)-4H-benzopyran-3-yl)oxy)butyl) (methyl)amino) piperidine-1-dithiocarboxylic acid] | 33.58 ± 1.67 | 100 ± 0.42 |  | 
